Patent publication US8962844B2, “1,3,4-oxadiazole and 1,3,4-thiadiazole β-lactamase inhibitors” (priority 2012, dated 2015)
Structures can show the parent of a compound that is named as a salt.

Legend:
[1] = system: bacterial strains that express the class D cephalosporinase OXA-15; experiment: Standard BLI potentiation MIC / synergy MIC (sMIC) assays run in the presence of a β-lactam, OXA-15 expressing strains; type: cell-based, E. coli; conditions: BLI in combination with a β-lactam; comparison with Avibactam (comparator compound CCC)
Description: (§1) Unless otherwise indicated, the activity of the BLI compounds can be described by the MIC value obtained from a Synergy MIC assay or a BLI potentiation assay (e.g as described herein), both of which are run in the presence of a β-lactam.
(§2) A set of β-lactamase expressing isogenic E. coli strains was constructed by cloning a β-lactamase gene into a customized derivative of pBR322 (GenBank Accession Number J01749) and transforming the engineered plasmids into E. coli. The NdeI restriction site within the plasmid backbone of pBR322 was removed to generate pBR322 ΔNdeI. The pBR322 ΔNdeI vector itself, minus the blaTEM-1 gene, was amplified using two primers: (1) pBR-Pbla 5′-cgcatatgactettectttttcaatattattg-3, SEQ ID 1, a primer with an engineered NdeI restriction site at the 3′ end of the blaTEM-1 promoter and (2) pBR-vec-1 5′-[…]-3′, SEQ ID 2, a primer with an engineered BamHI restriction site at the 3′ end of the blaTEM-1 open reading frame. The chloramphenicol resistance gene, cat, was generated by PCR amplification from pKD3 (GenBank Accession Number AY048742) using primers with an engineered NdeI restriction site at the 5′ end (Pbla-cat 5′-[…]-3′, SEQ ID 3) and an engineered BamHI restriction site at the 3′ end (Vec-1-cat 5′-[…]-3′, SEQ ID 4) of the resistance gene. The two PCR products, pBR322 ΔNdeI and cat were ligated together generating pBR-CBST (pBR322 ΔNdeI ΔTEM-1::cat Seq. ID 5) which retains both the pBR322 tetracycline resistance cassette, tetA, and the plasmid origin of replication but the blaTEM-1 gene was replaced by the cat gene.
(§3) Using this engineering strategy a number of plasmids producing β-lactamase genes from different classes (see below) were generated using synthetic genes with an engineered NdeI restriction site at the 5′ end and BamHI restriction site at the 3′ end of each gene (GenScript). Both the synthetic β-lactamase genes and cat gene were ligated into the NdeI/BamHI sites of the pBR322 ΔNdeI PCR product and transformed into electrocompetent E. coli ElectroMax DH10B (Invitrogen/Life Technologies). E. coli DH10B harboring the recombinant plasmids were selected on LB agar (supplemented with 25 μg/mL tetracycline) and single isolated colonies were then inoculated into 5 mL LB media (supplemented with 25 μg/mL tetracycline), and incubated at 37° C. with aeration (250 rpm) for 18 hrs. The cultures were frozen back at −80° C. in 20% glycerol. The DNA sequence of the cloned β-lactamase genes was confirmed. The β-lactamase gene expression in the recombinant E. coli strains was driven by the blaTEM-1 promoter in the pBR-CBST plasmid and was characterized by MIC profiling of the E. coli recombinant strains against comparator β-lactam/BLI combinations in broth microdilution assay.
(§4) The experimental protocol was performed according to Clinical and Laboratory Standards Institute (CLSI) guidelines with modifications as described below (CLSI guidelines can be derived from the CLSI document M07-A9 published in January 2012: “Methods for Dilution Antimicrobial Susceptibility Tests for Bacteria That Grow Aerobically; Approved Standard-Ninth Edition”).
(§5) To prepare for MIC testing, frozen glycerol stocks of clinical isolates (Klebsiella pneumoniae, Eschericia coli, Enterobacter spp, Citrobacter spp, or Pseudomonas aeruginosa) were used to streak for isolated colonies on rich, non-selective, tryptic soy agar containing 5% sheep's blood (TSAB). Frozen glycerol stocks of laboratory engineered, isogenic E. coli strains, which contain cloned β-lactamase expressing plasmids were used to streak for isolated colonies on rich, selective LB agar supplemented with 25 μg/mL tetracycline to maintain the plasmid. All strains were incubated at 37° C. for 18-24 hrs.
(§6) On the day of testing, primary cultures were started by scraping off 5-10 colonies from the TSAB plates containing clinical strains or the tetracycline supplemented LB plates containing engineered strains. […]

[2] = system: bacterial strains that express KPC β-lactamases; experiment: Standard BLI potentiation MIC / synergy MIC (sMIC) assays run in the presence of a β-lactam, KPC expressing strains; type: cell-based; conditions: more active for at least one KPC strain and/or better spectrum of activity than Avibactam; BLI in combination with a β-lactam
Description: as §1, §2, §3, §4, §5, §6

## O=C1N2C[C@@H](CC[C@H]2c2nnco2)N1OS(=O)(=O)O [Compound 701, (2S,5R)-2-(1,3,4-oxadiazol-2-yl)-7-oxo-1,6-diazabicyclo[3.2.1]octan-6-yl hydrogen sulfate]
[1]
  activity against bacterial strains that express the class D cephalosporinase OXA-15, compared with Avibactam: more active than Avibactam
[2]
  activity and/or spectrum of activity against bacterial strains that express KPC β-lactamases, compared with Avibactam: more active than Avibactam

## NCc1nnc([C@@H]2CC[C@@H]3CN2C(=O)N3OS(=O)(=O)O)o1 [Compound 702, (2S,5R)-2-(5-(aminomethyl)-1,3,4-oxadiazol-2-yl)-7-oxo-1,6-diazabicyclo[3.2.1]octan-6-yl hydrogen sulfate]
[1]
  activity against bacterial strains that express the class D cephalosporinase OXA-15, compared with Avibactam: more active than Avibactam
[2]
  activity and/or spectrum of activity against bacterial strains that express KPC β-lactamases, compared with Avibactam: more active than Avibactam

## NCCc1nnc([C@@H]2CC[C@@H]3CN2C(=O)N3OS(=O)(=O)O)o1 [Compound 703, (2S,5R)-2-(5-(2-aminoethyl)-1,3,4-oxadiazol-2-yl)-7-oxo-1,6-diazabicyclo[3.2.1]octan-6-yl hydrogen sulfate]
[1]
  activity against bacterial strains that express the class D cephalosporinase OXA-15, compared with Avibactam: more active than Avibactam
[2]
  activity and/or spectrum of activity against bacterial strains that express KPC β-lactamases, compared with Avibactam: more active than Avibactam

## N=C(N)NCCc1nnc([C@@H]2CC[C@@H]3CN2C(=O)N3OS(=O)(=O)O)o1 [Compound 705, (2S,5R)-2-(5-(2-guanidinoethyl)-1,3,4-oxadiazol-2-yl)-7-oxo-1,6-diazabicyclo[3.2.1]octan-6-yl hydrogen sulfate]
[1]
  activity against bacterial strains that express the class D cephalosporinase OXA-15, compared with Avibactam: more active than Avibactam
[2]
  activity and/or spectrum of activity against bacterial strains that express KPC β-lactamases, compared with Avibactam: more active than Avibactam

## NC(=O)c1nnc([C@@H]2CC[C@@H]3CN2C(=O)N3OS(=O)(=O)O)o1 [Compound 706, (2S,5R)-2-(5-carbamoyl-1,3,4-oxadiazol-2-yl)-7-oxo-1,6-diaza-bicyclo[3.2.1]octan-6-yl hydrogen sulfate]
[1]
  activity against bacterial strains that express the class D cephalosporinase OXA-15, compared with Avibactam: more active than Avibactam
[2]
  activity and/or spectrum of activity against bacterial strains that express KPC β-lactamases, compared with Avibactam: more active than Avibactam

## O=C1N2C[C@@H](CC[C@H]2c2nnc(C3CNC3)o2)N1OS(=O)(=O)O [Compound 708, (2S,5R)-2-(5-(azetidin-3-yl)-1,3,4-oxadiazol-2-yl)-7-oxo-1,6-diazabicyclo[3.2.1]octan-6-yl hydrogen sulfate]
[1]
  activity against bacterial strains that express the class D cephalosporinase OXA-15, compared with Avibactam: more active than Avibactam
[2]
  activity and/or spectrum of activity against bacterial strains that express KPC β-lactamases, compared with Avibactam: more active than Avibactam

## N=C(N)N1CC(c2nnc([C@@H]3CC[C@@H]4CN3C(=O)N4OS(=O)(=O)O)o2)C1 [Compound 709, (2S,5R)-2-(5-(1-carbamimidoylazetidin-3-yl)-1,3,4-oxadiazol-2-yl)-7-oxo-1,6-diazabicyclo[3.2.1]octan-6-yl hydrogen sulfate]
[1]
  activity against bacterial strains that express the class D cephalosporinase OXA-15, compared with Avibactam: more active than Avibactam
[2]
  activity and/or spectrum of activity against bacterial strains that express KPC β-lactamases, compared with Avibactam: more active than Avibactam

## NC1CCN(CCc2nnc([C@@H]3CC[C@@H]4CN3C(=O)N4OS(=O)(=O)O)o2)CC1 [Compound 775, (2S,5R)-2-(5-(2-(4-aminopiperidin-1-yl)ethyl)-1,3,4-oxadiazol-2-yl)-7-oxo-1,6-diazabicyclo[3.2.1]octan-6-yl hydrogen sulfate]
[2]
  activity and/or spectrum of activity against bacterial strains that express KPC β-lactamases, compared with Avibactam: more active than Avibactam
